Assays:
[1] = system: mutant C. elegans strain with a constitutively pumping pharynx; assay: Pharynx pumping assay (calcein-AM fluorescence), screen for inhibitors; type: in vivo; conditions: compounds and worms incubated approximately 1 hour, then calcein-AM, one further hour
Description: Depending on the specific assay which it is desired to perform, different C. elegans strains can be used. Screens to select for chemical substances inhibiting the pumping rate of the C. elegans pharynx are generally performed with mutant C. elegans strains which have a constitutively pumping pharynx. Wild-type worms can also be used in this screen, but the mutants worms are preferred. […] The selected mutant C. elegans with the constitutively pumping pharynx pumps medium into the gut at a constant rate and reduction/rescue of this phenotype can easily be scored, which facilitates the detection and selection of chemical substances.
(§1) The pumping rate of the pharynx is measured indirectly by adding a marker molecule precursor such as calcein-AM to the medium and measuring the formation of marker dye in the C. elegans gut. Calcein-AM is cleaved by esterases present in the C. elegans gut to release calcein, which is a fluorescent molecule. […] Therefore by measuring the accumulation of calcein in the nematode gut, detectable by fluorescence, it is possible to determine the pumping rate of the pharynx.
(§2) To perform the pharynx pumping screen with calcein-AM, a concentration of between 1 and 100 μM calcein-AM is added into the medium. Preferably 5 to 10 μM calcein-AM is used. Fluorescence is measured using a multi-well plate reader (Victor2, Wallac Oy, Finland) with following settings: Ex/Em=485/530.
160 well known drugs selected from the pharmacopoeia were used in a screen to test the performance of the pharynx pumping method. The drugs tested belong to a variety of categories, which included analgesics, antidiabetics, antiarrythmics, calcium channel blockers, diuretics, cholinesterase inhibitors, proton pump inhibitors and antidepressants.
The drugs were randomly distributed over the wells of two 96-well multi-well plates. The pumping rate of the C. elegans pharynx was measured using calcein-AM as described in Example 2.
In a first assay, the substrate calcein-AM was added to the medium at the same time as the worms and the compounds. The fluorescence was measured after approximately one hour.
In a variation of this protocol, compounds and worms are added to the medium first and incubated for approximately 1 hour. After this incubation period that allowed for the chemical substances to activate or to inhibit the pumping rate of the pharynx, calcein-AM was added. The plates where then further incubated for one hour prior to fluorescence measurement in the microtiter plate reader.

C. elegans pharynx [2] = assay: Pharynx pumping assay (calcein-AM), strain not specified: dilution series, insecticides, Tocris library; type: in vivo; conditions: for effect of compounds of known insecticidal activity on the pharynx pumping rate: FIGS. 18 to 21
Protocol: as §1, §2
To determine the sensitivity of the pharynx pumping assay, dilution series were made for some chemical substances. These include the chemicals clomipramine, tamoxifen, BP554, pimazide and thapsigargin. A concentration range was made from less than 1 μM up to 100 μM, and the pumping assay was repeated as described in previous examples.

wild-type worms = assay: Movement assay (autofluorescence), wild-type worms; type: in vivo, C. elegans; conditions: for effect on movement of wild-type worms, compound alone: FIG. 8, 100% represents normal movement of wild-type worms
Protocol: Advanced multi-well plate readers are able to detect sub-regions of the wells of multi-well plates. By using these plate readers it is possible to take measurements in selected areas of the surface of the wells of the multi-well plates. If the area of measurement is centralized, so that only the middle of the well is measured, a difference in nematode autofluorescence (fluorescence which occurs in the absence of any external marker molecule) or optical density can be observed in the wells containing nematodes that move normally as compared to wells containing nematodes that are defective for movement. For the wells containing the nematodes that move normally, a low level of autofluorescence or optical density will be observed, whilst a high level of autofluorescence or optical density can be observed in the wells that contain the nematodes that are defective in movement. Optical density is measured using a variation of the platelet aggregation assay, which is well known in the art. Using the MRX revelation device from Dynex (USA), optical density can be measured at multiple points per well, showing the precipitation pattern of the nematodes.
This is because the mutant is mutated in the acetylcholine esterases, resulting in high concentrations of acetylcholine in the synapses. Neostigmine, a well known acetylcholine esterase inhibitor, was added to wild-type worms distributed over the wells of a multi-well plate and submitted to the movement assay after approximately 2 hours.
As receptor antagonist, hexamethonium will also result in a decrease of movement, as it prevents proper signalling.
In another experiment, wild-type worms were contacted with inhibitory concentrations of neostigmine to prevent movement. After a small incubation period, various concentrations of hexamethonium were added and the wells were submitted to the movement assay (measurement of autofluorescence). […] At very high concentrations of hexamethonium (although lower than the concentrations shown in last panel) a toxic effect is observed, resulting in a decrease in movement. This toxic effect is probably due to the presence of high concentrations of both neostigmine and hexamethonium.

[3] = system: ace-1; ace-2 double mutant; assay: Movement assay, ace-1; ace-2 double mutant; type: in vivo, C. elegans; conditions: increasing concentrations of hexamethonium, absence of neostigmine; compared with the neostigmine experiment
Protocol: An analogous experiment was performed with the ace-1; ace-2 double mutant. In this experiment, increasing concentrations of hexamethonium were added to the wells in the absence of neostigmine.

C. elegans pharynx [4] = conditions: Kerr et al.; cited from earlier work
[5] = concentration range from less than 1 μM up to 100 μM

With `CN1[C@@H]2CC[C@H]1C[C@@H](OC(=O)C(CO)c1ccccc1)C2` (stereo partly drawn) [Atropine] the “activity on the pharynx pumping rate found with the variation of the protocol” value (shortened to “activity … of the protocol”) [1] was “detection”.
In the case of `CN1[C@@H]2CC[C@H]1C[C@@H](OC(=O)[C@H](CO)c1ccccc1)C2` [L-Hyoscyamine], the “activity … of the protocol” value [1] is reported as “detection”.
In the case of `COP(=O)(OC)C(O)C(Cl)(Cl)Cl` (stereo not drawn) [Metrifonate], the “activity … of the protocol” value [1] is reported as “detection”.
With `CC/C(=C(\c1ccccc1)c1ccc(OCCN(C)C)cc1)c1ccccc1` [Tamoxifen] the “effect on pharynx pumping rate, dose-response curve” value (from here on “effect on pharynx pumping rate”) (C. elegans pharynx [2]; [5]) was “inhibitors”.
For `C/C=C(/C)C(=O)O[C@H]1C(C)=C2[C@H]([C@@H]1OC(=O)CCCCCCC)[C@@](C)(OC(C)=O)C[C@H](OC(=O)CCC)[C@@]1(O)[C@H]2OC(=O)[C@@]1(C)O` [Thapsigargin], the effect on movement (wild-type worms; observation, method not stated) was “decreased movement”, the “effect on pharynx pumping rate” value (C. elegans pharynx [2]; at low concentration) was “enhancement of the pumping” and the “effect on pharynx pumping rate” value (C. elegans pharynx [2]; [5]) was “decrease of the pumping rate”. For the same compound, the “effect on pharynx pumping” value (C. elegans pharynx [2]; general statement) was “decrease in the pharynx pumping rate”.
For `N=C(N)S/C=C\C(=O)O` [ZAPA], the “activity … of the protocol” value [1] was “detection”.
With `C[N+](C)(C)CCCCCC[N+](C)(C)C` [hexamethonium, Hexamethonium] the “effect on movement of wild-type worms, compound alone” value (wild-type worms) was “represses the movement of wild-type worms, but significant less than neostigmine”, the “movement of wild-type worms in presence of inhibitory concentrations of neostigmine” value (wild-type worms; increasing concentrations of hexamethonium) was “more movement” and the “toxic effect in movement assay” value (wild-type worms; very high concentrations of hexamethonium together with neostigmine) was “toxic effect”. For the same compound, the “movement of ace-1; ace-2 double mutant” value [3] was “comparable”.
In the case of `CN(C)C(=O)Oc1cccc([N+](C)(C)C)c1` [neostigmine, Neostigmine], the “effect on movement of wild-type worms, compound alone” value (wild-type worms) is reported as “clear decrease in movement”.
For `NCCc1c[nH]c2ccc(O)cc12` [serotonin], the “effect on pumping, seen as fluorescence of GFP-calmodulin” value (C. elegans pharynx [4]) is given as “enhancers of pumping”.
In the case of Ivermectin, the “effect of compounds of known insecticidal activity on the pharynx pumping rate” value (C. elegans pharynx [2]) is listed as “reduction in the pharynx pumping rate” and the “effect on pumping, seen as fluorescence of GFP-calmodulin” value (C. elegans pharynx [4]) is listed as “inhibitors of pumping”.
With Picrotoxin the “effect of compounds of known insecticidal activity on the pharynx pumping rate” value (C. elegans pharynx [2]) was “reduction in the pharynx pumping rate”.
